Data reported in US6713269B2, “Methods for identifying potential therapeutic agents for treatment of osteoporosis using mitogenic indices” (co.don Aktiengesellschaft, priority 1995, dated 2004).

System: human osteoblast precursor cells
Test: Cell proliferation rate under the influence of growth factors, using bromodeoxyuridine incorporation (BrdU incorporation)
Format: cell-based
Details: 54 h incubation + 18 h BrdU labelling, OD at 405 nm
Experimental: 3,000 osteoblastic cells from fractions t1 to 2 up to the second passage, recovered from osteoporotic patients (OP cells), per well of a 96-well microwell plate were incubated in the presence of 10% FCS and 10% inactivated human control serum in a cell culture medium (α-MEM and HAM-S F12 medium […]) for 48 h, 120 h and 192 h. In parallel, 3,000 osteoblastic cells from non-osteoporotic patients were incubated under the same conditions. The number of intact cells was determined by means of trypan blue staining and counting in a counting chamber. 4. Determination of the cell proliferation rate under the influence of the three growth factors 1, 2 and 3 using bromodeoxyuridine incorporation (BrdU incorporation) Growth factor 1 =TGF-β2
Cells from fraction 1 and/or 2 of each punched-out bone piece up to the 2nd passage were used in the proliferation test.
3 ×10^3 cells from the first and/or second passage per well of a 96-well plate and 200 μl of medium were used.
The cells were cultivated for three days under the conditions previously described and subsequently cultivated further for one day in medium with no serum until subconfluence was reached.
Thereafter, the three growth factors 1, 2 and 3 were added to the cells at four different final concentrations (100, 10, 1, and 0.1 ng/ml medium).
Cells in a medium containing 10% FKS and in a medium containing 5% Ultroser served as controls.
Triplets were set up for all concentrations and controls.
Six wells including cells, to which no bromodeoxyuridine had been added during the proliferation test served as blank controls.
After 54 hours of incubation with the growth factors, the proliferation test (5-Bromo-2′-deoxyuridine Labeling and Detection Kit III by Boehringer Mannheim) was initiated by adding 20 μl of labelling solution diluted 1:90 in 1% BSA medium and subsequent incubation for 18 hours.
The proliferation test was conducted according to the manufacturer's instructions.
Evaluation of the proliferation test was effected by measuring the optical density (OD) at 405 nm in an ELISA reader. After 60 minutes of color development, the absorbance was measured 12 times at intervals of 5 minutes.

## IGF I: protein growth factor 2 (insulin-like growth factor I)
0.1 ng/ml medium
  Absorbance mean value: 0.151
1 ng/ml medium
  Absorbance mean value: 0.148
10 ng/ml medium
  Absorbance mean value: 0.140
100 ng/ml medium
  Absorbance mean value: 0.140

## IGF II: protein growth factor 3 (insulin-like growth factor II)
0.1 ng/ml medium
  Absorbance mean value: 0.148
1 ng/ml medium
  Absorbance mean value: 0.150
10 ng/ml medium
  Absorbance mean value: 0.139
100 ng/ml medium
  Absorbance mean value: 0.140
